From patent US9079853B2, “Isatin compounds, compositions and methods for treatment of degenerative diseases and disorders” (MUSC FOUNDATION FOR RESEARCH DEVELOPMENT, priority 2013, dated 2015)

Tests used:
[1] = test system: 661W or C6 cells; assay: MTT assay, protection against calcium-ionophore A23187; assay type: cell-based; conditions: for MTT, % protection: 1 μM A23187, 24 h
Experimental: The compound 3-(4,5-Dimethylthiazol-2-yl)-2,5-diphenyltetrazolium bromide (MTT) is a tetrazolium ion that is reduced to a blue formazan dye via several families of NAD(P)H-dependent oxidoreductases. Formation of the formazan dye from MTT or other related tetrazolium dyes are commonly used as a viability assay even though, in fact, the assay is a metabolic capacity assay.
In this assay, 661W or C6 cells were maintained in DMEM supplemented with 10% FBS. 100 μL of 70,000 cells/mL cells were seeded into each well of 96 well plates using DMEM supplemented with 5% FBS. Cells were then allowed to grow to confluency for 48 hours. The compounds of the invention were added in 2 μL media and calcium-ionophore A23187 was then added in 1 μL for a final concentration of 1 μM and after 24 h, 20 μL of […] MTT were added to each well and the cells were incubated for another 4 h after which 100 μL of 1% SDS in 0.01M aqueous HCl were added to each well and the plates were incubated overnight. Absorbance was measured at […] (background correction). The 1 μM ionophore A23187 caused about 50% loss in MTT signal at 24 h. Protection was calculated as the increase in absorbance of treatment groups normalized to the vehicle control.

[2] = test system: 661W or C6 cells; assay: XF FCCP-uncoupled oxygen consumption rate assay (IBMX challenge); assay type: cell-based; conditions: 24 h; for activity at 0.001 µM: compound 1 nM; for activity at 0.001 µM / activity at 0.0008 µM / activity at 0.01 µM: 1 h pretreatment, 600 μM IBMX, read-out: XF FCCP OCR (% Ctrl); for activity at 0.0008 µM: compound 800 pM; for activity at 0.01 µM: compound 10 nM;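 as to XF FCCP OCR (% Ctrl): values normalized to the vehicle control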
Experimental: The XF FCCP-uncoupled oxygen consumption rate assay assesses mitochondrial capacity by measuring cellular respiration. It was shown that the maximum FCCP-uncoupled oxygen consumption rate (OCR) was a good estimate of maximal mitochondrial capacity (Beeson 2010) and that IBMX treatment of 661W or C6 cells for 24 h caused a loss in maximal uncoupled OCR (Perron 2013). Thus, cells were pretreated with the exemplified compounds for 1 h, added 600 μM IBMX and then measured the uncoupled rate after 24 h. In brief, the OCR measurements were performed using a Seahorse Bioscience XF instrument (Seahorse Bioscience, Billerica, Md.), as previously published (Perron 2013). O2 leakage through the plastic sides and bottom of the plate was accounted for using the AKOS algorithm in the XF software package. Cells were plated on 96- or 24-well custom plates designed for use in the XF and grown to confluency in DMEM+5% FBS (48 h). The medium was then replaced with DMEM+1% FBS for 24 h, along with any treatments.

Row | SMILES | MTT, % protection ([1]; compound 1 nM) | activity at 0.001 µM [2] | further results
1 | COc1cccnc1CC1(O)C(=O)N(CCc2ccccc2)c2ccc(Cl)cc21 (stereo not drawn) [Example 3, 5-chloro-3-hydroxy-3-((3-methoxypyridin-2-yl)methyl)-1-phenethylindolin-2-one] | 74.5%, | 74.5% | –
2 | O=C1N(CCN2CCCCC2)c2ccc(Cl)cc2C1(O)Cc1ccccn1 (stereo not drawn) [Example 4, 5-chloro-3-hydroxy-1-(2-(piperidin-1-yl)ethyl)-3-(pyridin-2-ylmethyl)indolin-2-one] | – | 69% | MTT, % protection ([1]; compound 800 pM): 61.5%,
3 | CCCN1C(=O)C(O)(Cc2ccc(OC)cn2)c2cc(C)ccc21 (stereo not drawn) [Example 6, 3-hydroxy-3-((5-methoxypyridin-2-yl)methyl)-5-methyl-1-propylindolin-2-one] | – | – | MTT, % protection ([1]; compound 500 pM): 68.8%,; activity at 0.0008 µM [2]: 67%
4 | CCCN1C(=O)C(O)(CC(=O)c2ccc(OC)nc2OC)c2cc(Cl)ccc21 (stereo not drawn) [Example 22, 5-chloro-3-(2-(2,6-dimethoxypyridin-3-yl)-2-oxoethyl)-3-hydroxy-1-propylindolin-2-one] | – | – | MTT, % protection ([1]; compound 10 nM): 71.8%,; activity at 0.01 µM [2]: 76%
5 | CCCN1C(=O)C(O)(CC(=O)c2ccccn2)c2cc(Cl)ccc21 (stereo not drawn) [Example 23, 5-chloro-3-hydroxy-3-(2-oxo-2-(pyridin-2-yl)ethyl)-1-propylindolin-2-one] | – | – | MTT, % protection ([1]; compound 10 nM): 73%,; activity at 0.01 µM [2]: 73%
6 | CCCN1C(=O)C(O)(CC(=O)c2c[nH]c3ccccc23)c2cc(C)ccc21 (stereo not drawn) [Example 24, 3-(2-(1H-indol-3-yl)-2-oxoethyl)-3-hydroxy-5-methyl-1-propylindolin-2-one] | 69%, | – | activity at 0.01 µM [2]: 59%
7 | CCCN1C(=O)C(O)(CC(=O)c2ccc(OC)nc2OC)c2cc(C)ccc21 (stereo not drawn) [Example 25, 3-(2-(2,6-dimethoxypyridin-3-yl)-2-oxoethyl)-3-hydroxy-5-methyl-1-propylindolin-2-one] | 73.8%, | 57% | –
8 | CCCN1C(=O)C(O)(CC(=O)c2cccc(OC)n2)c2cc(C)ccc21 (stereo not drawn) [Example 26, 3-hydroxy-3-(2-(6-methoxypyridin-2-yl)-2-oxoethyl)-5-methyl-1-propylindolin-2-one] | – | 62% | MTT, % protection ([1]; compound 10 nM): 83.8%,
9 | CCCN1C(=O)C(O)(CC(=O)c2cccc(OC)n2)c2cc(Cl)cc(Cl)c21 (stereo not drawn) [Example 30, 5,7-dichloro-3-hydroxy-3-(2-(6-methoxypyridin-2-yl)-2-oxoethyl)-1-propylindolin-2-one] | 69%, | 59% | –
10 | COc1cc(CC2(OC(=O)c3ccccc3)C(=O)N(CC(C)C)c3ccc(Cl)cc32)cc(OC)c1OC (stereo not drawn) [Example 35, 5-chloro-1-isobutyl-2-oxo-3-(3,4,5-trimethoxybenzyl)indolin-3-yl benzoate] | – | – | MTT, % protection ([1]; compound 800 pM): 113.5%,; activity at 0.0008 µM [2]: 55%
11 | COc1cc(CC2(O)C(=O)N(CC(C)C)c3ccc(C)cc32)cc(OC)c1OC (stereo not drawn) [Example 37, 3-hydroxy-1-isobutyl-5-methyl-3-(3,4,5-trimethoxybenzyl)indolin-2-one] | – | 65% | MTT, % protection ([1]; compound 800 pM): 68.4%,
12 | CCN1C(=O)C(Cc2cc(OC)cc(OC)c2)(OC(=O)c2ccccc2)c2cc(C)ccc21 (stereo not drawn) [Example 38, 3-(3,5-dimethoxybenzyl)-1-ethyl-5-methyl-2-oxoindolin-3-yl benzoate] | 84.1%, | 78% | –
13 | COc1cc(CC2(OC(=O)c3ccccc3)C(=O)N(CCc3ccccc3)c3ccc(C)cc32)cc(OC)c1 (stereo not drawn) [Example 39, 3-(3,5-dimethoxybenzyl)-5-methyl-2-oxo-1-phenethylindolin-3-yl benzoate] | 83.2%, | 66% | –
14 | CCN1C(=O)C(Cc2cccc(OC)c2)(OC(=O)c2ccccc2)c2cc(Cl)ccc21 (stereo not drawn) [Example 40, 5-chloro-1-ethyl-3-(3-methoxybenzyl)-2-oxoindolin-3-yl benzoate] | 81.1%, | 66% | –
15 | CCCCN1C(=O)C(O)(Cc2cc(OC)cc(OC)c2)c2cc(Cl)ccc21 (stereo not drawn) [Example 41, 1-butyl-5-chloro-3-(3,5-dimethoxybenzyl)-3-hydroxyindolin-2-one] | – | 79% | MTT, % protection ([1]; compound 1 μM): 66.8%,
16 | CCCCN1C(=O)C(O)(Cc2cccc(OC)c2)c2cc(Cl)ccc21 (stereo not drawn) [Example 42, 1-butyl-5-chloro-3-hydroxy-3-(3-methoxybenzyl)indolin-2-one] | 69.8%, | 71% | –
17 | CCCN1C(=O)C(O)(Cc2cccc(OC)c2)c2cc(C)ccc21 (stereo not drawn) [Example 43, 3-hydroxy-3-(3-methoxybenzyl)-5-methyl-1-propylindolin-2-one] | 64.8%, | 69% | –
18 | COc1cc(CC2(O)C(=O)N(CC(C)C)c3ccccc32)cc(OC)c1OC (stereo not drawn) [Example 48, 3-hydroxy-1-isobutyl-3-(3,4,5-trimethoxybenzyl)indolin-2-one] | 91%, | 85% | –
19 | COc1cc(CC2(OC(=O)c3ccccc3)C(=O)N(CCc3ccccc3)c3ccc(Cl)cc32)cc(OC)c1OC (stereo not drawn) [Example 50, 5-chloro-2-oxo-1-phenethyl-3-(3,4,5-trimethoxybenzyl)indolin-3-yl benzoate] | 79.2%, | 65% | –
20 | CCN1C(=O)C(O)(Cc2ccc(OC)cc2)c2cc(C)ccc21 (stereo not drawn) [Example 51, 1-ethyl-3-hydroxy-3-(4-methoxybenzyl)-5-methylindolin-2-one] | 62.2%, | 65% | –
21 | COc1ccc(CC2(OC(=O)c3ccccc3)C(=O)N(CCCC(C)C)c3ccc(C)cc32)c(O)c1 (stereo not drawn) [Example 53, 3-(2-hydroxy-4-methoxybenzyl)-5-methyl-1-(4-methylpentyl)-2-oxoindolin-3-yl benzoate] | 100%, | 91% | –
22 | COc1ccc(CC2(OC(=O)c3ccccc3)C(=O)N(CCCN3CCOCC3)c3ccc(Cl)cc32)c(O)c1 (stereo not drawn) [Example 56, 5-chloro-3-(2-hydroxy-4-methoxybenzyl)-1-(3-morpholinopropyl)-2-oxoindolin-3-yl benzoate] | 85.3%, | 68% | –
23 | COc1ccc(O)c(CC2(OC(=O)c3ccccc3)C(=O)N(CCc3ccccc3)c3ccc(Cl)cc32)c1 (stereo not drawn) [Example 61, 5-chloro-3-(2-hydroxy-5-methoxybenzyl)-2-oxo-1-phenethylindolin-3-yl benzoate] | 87.1%, | 67% | –
24 | CCN1C(=O)C(Cc2cc(OC)ccc2O)(OC(=O)c2ccccc2)c2cc(Cl)ccc21 (stereo not drawn) [Example 62, 5-chloro-1-ethyl-3-(2-hydroxy-5-methoxybenzyl)-2-oxoindolin-3-yl benzoate] | – | – | MTT, % protection ([1]; compound 800 pM): 86.4%,; activity at 0.0008 µM [2]: 70%
25 | CCCN1C(=O)C(O)(Cc2cn(C(=O)c3ccccc3)c3ccccc23)c2cc(C)ccc21 (stereo not drawn) [Example 64, 3-((1-benzoyl-1H-indol-3-yl)methyl)-3-hydroxy-5-methyl-1-propylindolin-2-one] | – | – | MTT, % protection ([1]; compound 100 nM): 51.5%,
26 | CNc1ccc2oc(C[C@H]3O[C@@]4(CC[C@H]3C)O[C@H]([C@H](C)C(=O)c3ccc[nH]3)[C@H](C)C[C@H]4C)nc2c1C(=O)O [Example A23187, reference compound] | – | – | loss in MTT signal ([1]; 1 μM ionophore, 24 h): about 50%
27 | CC(C)Cn1c(=O)n(C)c(=O)c2[nH]cnc21 [IBMX, reference compound] | – | – | decrease in the uncoupled rate (OCR) ([2]; IBMX treatment alone, 600 μM): ~50%
